Data as given in US20090018111A1, “Novel Antimicrobial Medicament” (priority 2004, published 2009).
Read-outs that look alike come from different tables or passages of the source.

Columns and labels:
Test in all cases: Sensitivity test (agar dilution), clinical isolate
Format in all cases: cell-based, Pseudomonas aeruginosa
[1] = tested on: P. aeruginosa 12789
Method: (§1) In addition, the antibacterial activities were tested against strains which are comparatively less sensitive to β-lactam compounds, namely clinically isolated 13 strains of Acinetobacter calcoaceticus and Acinetobacter lwoffi, clinically isolated 11 strains of Serratia marcescens, clinically isolated 12 strains of Burkholderia cepacia, and clinically isolated 15 strains of Pseudomonas aeruginosa.
(§2) According to the standard method of Japan Chemotherapeutic Society (Chemotherapy, vol. […], p 76-79 (1981)) the test was carried out using the agar dilution method. After dissolving test samples in distilled water, agar medium containing the test samples was prepared in such a manner that the final concentration became twice serial dilution by pouring serially diluted combination drug solution or a single drug solution into agar medium. As agar medium was used Mueller Hinton Agar medium (MHA). Then, each strain was cultivated over night at 37° C. in an incubator and suspended in buffered saline solution with gelatin (BSG) in the concentration of about 10^6 CFU/ml. The suspension (about 5 μl) containing test strains was inoculated to the medium containing the test samples by Micro Planter.
(§3) Each drug was weighed, and dissolved in distilled water to give a test sample. When the drugs are used in combination, two kinds of solution containing each drug were mixed so as to be various ratio of concentration to give a mixed solution. When the sample is subjected to sensitivity test, this mixed solution was diluted by twice serial dilution method.
(§4) Furthermore, when the drug is solely used, each test sample was used as it is, and diluted by twice serial dilution method from the maximum concentration to the minimum concentration.

[2] = tested on: P. aeruginosa 12790; settings: read-out: MIC
Method: as §1, §2, §3, §4

[3] = tested on: P. aeruginosa 13221; settings: read-out: MIC
Method: as §1, §2, §3, §4

[4] = tested on: P. aeruginosa 13224
Method: as §1, §2, §3, §4

[5] = tested on: P. aeruginosa 13245
Method: as §1, §2, §3, §4

[6] = tested on: P. aeruginosa 13250
Method: as §1, §2, §3, §4

[7] = tested on: P. aeruginosa 13269
Method: as §1, §2, §3, §4

[8] = tested on: P. aeruginosa 13272
Method: as §1, §2, §3, §4

[9] = tested on: P. aeruginosa 13280
Method: as §1, §2, §3, §4

[10] = tested on: P. aeruginosa 13285
Method: as §1, §2, §3, §4

[11] = tested on: P. aeruginosa 15019
Method: as §1, §2, §3, §4

[12] = tested on: P. aeruginosa 15032
Method: as §1, §2, §3, §4

[13] = tested on: P. aeruginosa 15036
Method: as §1, §2, §3, §4

[14] = tested on: P. aeruginosa 15039
Method: as §1, §2, §3, §4

[15] = tested on: P. aeruginosa 15040
Method: as §1, §2, §3, §4

Measured: MIC

C[C@H]1C=C(c2csc(SC3=C(C(=O)O)N4C(=O)[C@H]([C@@H](C)O)[C@H]4[C@H]3C)n2)CN1 [SM, (4R,5S,6S)-6-[(1R)-1-Hydroxyethyl]-4-methyl-3-({4-[(5S)-5-methyl-2,5-dihydro-1H-pyrrol-3-yl]-1,3-thiazol-2-yl}sulfanyl)-7-oxo-1-azabicyclo[3.2.0]hept-2-ene-2-carboxylic acid]
4 µg/mL: [2]; Pseudomonas aeruginosa, 12790, alone | [4]; Pseudomonas aeruginosa, 13224, Concomitant (ME:SM = 1:1) | [4]; Pseudomonas aeruginosa, 13224, Concomitant (ME:SM = 1:2) | [7]; Pseudomonas aeruginosa, 13269, Concomitant (ME:SM = 1:1) | [7]; Pseudomonas aeruginosa, 13269, Concomitant (ME:SM = 1:2) | [8]; Pseudomonas aeruginosa, 13272, Concomitant (ME:SM = 1:1) | [8]; Pseudomonas aeruginosa, 13272, Concomitant (ME:SM = 1:2) | [9]; Pseudomonas aeruginosa, 13280, Concomitant (ME:SM = 1:1) | [9]; Pseudomonas aeruginosa, 13280, Concomitant (ME:SM = 2:1) | [10]; Pseudomonas aeruginosa, 13285, Concomitant (ME:SM = 1:1) | [11]; Pseudomonas aeruginosa, 15019, Concomitant (ME:SM = 1:1) | [14]; Pseudomonas aeruginosa, 15039, Concomitant (ME:SM = 2:1) | [15]; Pseudomonas aeruginosa, 15040, Concomitant (ME:SM = 1:1) | [15]; Pseudomonas aeruginosa, 15040, Concomitant (ME:SM = 1:2)
0.063 µg/mL: [2]; Pseudomonas aeruginosa, 12790, Concomitant (ME:SM = 1:1)
0.125 µg/mL: [3]; Pseudomonas aeruginosa, 13221, Concomitant (ME:SM = 1:1)
32 µg/mL: [9]; Pseudomonas aeruginosa, 13280, alone | [10]; Pseudomonas aeruginosa, 13285, alone | [14]; Pseudomonas aeruginosa, 15039, alone
8 µg/mL: [1]; Pseudomonas aeruginosa, 12789, alone | [4]; Pseudomonas aeruginosa, 13224, Concomitant (ME:SM = 1:4) | [5]; Pseudomonas aeruginosa, 13245, Concomitant (ME:SM = 1:4) | [6]; Pseudomonas aeruginosa, 13250, alone | [7]; Pseudomonas aeruginosa, 13269, Concomitant (ME:SM = 1:4) | [8]; Pseudomonas aeruginosa, 13272, Concomitant (ME:SM = 1:4) | [9]; Pseudomonas aeruginosa, 13280, Concomitant (ME:SM = 1:2) | [10]; Pseudomonas aeruginosa, 13285, Concomitant (ME:SM = 1:2) | [11]; Pseudomonas aeruginosa, 15019, Concomitant (ME:SM = 1:2) | [11]; Pseudomonas aeruginosa, 15019, Concomitant (ME:SM = 1:4) | [12]; Pseudomonas aeruginosa, 15032, Concomitant (ME:SM = 1:4) | [12]; Pseudomonas aeruginosa, 15032, alone | [13]; Pseudomonas aeruginosa, 15036, Concomitant (ME:SM = 1:4) | [13]; Pseudomonas aeruginosa, 15036, alone | [14]; Pseudomonas aeruginosa, 15039, Concomitant (ME:SM = 1:1) | [15]; Pseudomonas aeruginosa, 15040, Concomitant (ME:SM = 1:4)
2 µg/mL: [1]; Pseudomonas aeruginosa, 12789, Concomitant (ME:SM = 1:4) | [4]; Pseudomonas aeruginosa, 13224, Concomitant (ME:SM = 2:1) | [5]; Pseudomonas aeruginosa, 13245, Concomitant (ME:SM = 1:1) | [5]; Pseudomonas aeruginosa, 13245, Concomitant (ME:SM = 1:2) | [6]; Pseudomonas aeruginosa, 13250, Concomitant (ME:SM = 1:4) | [7]; Pseudomonas aeruginosa, 13269, Concomitant (ME:SM = 2:1) | [8]; Pseudomonas aeruginosa, 13272, Concomitant (ME:SM = 2:1) | [10]; Pseudomonas aeruginosa, 13285, Concomitant (ME:SM = 2:1) | [11]; Pseudomonas aeruginosa, 15019, Concomitant (ME:SM = 2:1) | [12]; Pseudomonas aeruginosa, 15032, Concomitant (ME:SM = 1:1) | [12]; Pseudomonas aeruginosa, 15032, Concomitant (ME:SM = 1:2) | [13]; Pseudomonas aeruginosa, 15036, Concomitant (ME:SM = 1:1) | [13]; Pseudomonas aeruginosa, 15036, Concomitant (ME:SM = 1:2) | [15]; Pseudomonas aeruginosa, 15040, Concomitant (ME:SM = 2:1)
0.25 µg/mL: [1]; Pseudomonas aeruginosa, 12789, Concomitant (ME:SM = 2:1) | [2]; Pseudomonas aeruginosa, 12790, Concomitant (ME:SM = 1:2) | [2]; Pseudomonas aeruginosa, 12790, Concomitant (ME:SM = 1:4) | [3]; Pseudomonas aeruginosa, 13221, Concomitant (ME:SM = 1:2) | [3]; Pseudomonas aeruginosa, 13221, Concomitant (ME:SM = 1:4) | [6]; Pseudomonas aeruginosa, 13250, Concomitant (ME:SM = 2:1)
0.031 µg/mL: [3]; Pseudomonas aeruginosa, 13221, Concomitant (ME:SM = 2:1)
0.016 µg/mL: [2]; Pseudomonas aeruginosa, 12790, Concomitant (ME:SM = 2:1)
0.5 µg/mL: [1]; Pseudomonas aeruginosa, 12789, Concomitant (ME:SM = 1:1) | [6]; Pseudomonas aeruginosa, 13250, Concomitant (ME:SM = 1:1) | [6]; Pseudomonas aeruginosa, 13250, Concomitant (ME:SM = 1:2)
1 µg/mL: [1]; Pseudomonas aeruginosa, 12789, Concomitant (ME:SM = 1:2) | [5]; Pseudomonas aeruginosa, 13245, Concomitant (ME:SM = 2:1) | [12]; Pseudomonas aeruginosa, 15032, Concomitant (ME:SM = 2:1) | [13]; Pseudomonas aeruginosa, 15036, Concomitant (ME:SM = 2:1)
16 µg/mL: [3]; Pseudomonas aeruginosa, 13221, alone | [4]; Pseudomonas aeruginosa, 13224, alone | [5]; Pseudomonas aeruginosa, 13245, alone | [7]; Pseudomonas aeruginosa, 13269, alone | [8]; Pseudomonas aeruginosa, 13272, alone | [9]; Pseudomonas aeruginosa, 13280, Concomitant (ME:SM = 1:4) | [10]; Pseudomonas aeruginosa, 13285, Concomitant (ME:SM = 1:4) | [11]; Pseudomonas aeruginosa, 15019, alone | [14]; Pseudomonas aeruginosa, 15039, Concomitant (ME:SM = 1:2) | [14]; Pseudomonas aeruginosa, 15039, Concomitant (ME:SM = 1:4) | [15]; Pseudomonas aeruginosa, 15040, alone
